{"source": "patent US11078170B2", "about": "(Assembly Biosciences, Inc., priority 2017, dated 2021)", "data": [{"test_system": "HBV viral production from HepAD38 cells", "assay": "Activity of test compounds on viral production from HepAD38 cells (viral load by qPCR of HBV core sequence in supernatant)", "assay_type": "cell-based", "conditions": "Hepatitis B virus, 120 h, 5 days incubation, HBV DNA in supernatant by qPCR, top concentration 10 μM, read-out: Viral Load EC50 Activity range", "in_short": "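HepAD38 cells, 50,000/well in tetracycline-free 2% FBS medium, treated 5 days at 37° C. with compound from 10 μM top concentration. HBV DNA in supernatant quantified by TaqMan qPCR of core sequence against DNA standards, relative to DMSO wells; CellTiter-Glo viability read in parallel. EC50/CC50 from four-parameter logistic fit.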", "units": {"EC50": "nM"}, "values": [{"smiles": "COC(C)(C)CCN1[C@@H](C(=O)Nc2ccc(F)c(Cl)c2)C[C@@H](c2nccs2)NS1(=O)=O", "note": "[HBV-CSU-083-ISO-I, Cis-N-(3-Chloro-4-fluorophenyl)-2-(3-methoxy-3-methylbutyl)-5-(thiazol-2-yl)-1,2,6-thiadiazinane-3-carboxamide 1,1-dioxide]", "EC50": "> 5000"}, {"smiles": "CN1[C@H](C(=O)Nc2ccc(F)c(Cl)c2)C[C@H](c2ccc(F)cc2)NS1(=O)=O", "note": "[HBV-CSU-112-ISO-I, Cis-N-(3-Chloro-4-fluorophenyl)-5-(4-fluorophenyl)-2-methyl-1,2,6-thiadiazinane-3-carboxamide 1,1-dioxide]", "EC50": "< 1000"}, {"smiles": "CN1[C@H](C(=O)Nc2ccc(F)c(Cl)c2)C[C@H](c2cc(Cc3ccccc3)cs2)NS1(=O)=O", "note": "[HBV-CSU-149-ISO-I, Cis-(4-benzylthiophen-2-yl)-N-(3-chloro-4-fluorophenyl)-2-methyl-1,2,6-thiadiazinane-3-carboxamide 1,1-dioxide]", "EC50": "< 1000"}, {"smiles": "CC(C)n1cc(-c2ccc([C@H]3C[C@@H](C(=O)Nc4ccc(F)c(Cl)c4)N(C)S(=O)(=O)N3)s2)cn1", "note": "[HBV-CSU-292-ISO-I, Cis-N-(3-chloro-4-fluorophenyl)-5-(5-(1-isopropyl-1H-pyrazol-4-yl)thiophen-2-yl)-2-methyl-1,2,6-thiadiazinane-3-carboxamide 1,1-dioxide]", "EC50": "< 1000"}, {"smiles": "CN1[C@@H](C(=O)Nc2ccc(F)c(Cl)c2)C[C@H](c2ncc(Br)s2)NS1(=O)=O", "note": "[HBV-CSU-122-Trans-ISO-I, (3R,5R)-5-(5-bromothiazol-2-yl)-N-(3-chloro-4-fluorophenyl)-2-methyl-1,2,6-thiadiazinane-3-carboxamide 1,1-dioxide]", "EC50": "1000 to 5000"}, {"smiles": "CN1[C@@H](C(=O)Nc2ccc(F)c(Cl)c2)C[C@@H](c2ccc(F)cn2)NS1(=O)=O", "note": "[HBV-CSU-032-ISO-II, Cis-N-(3-Chloro-4-fluorophenyl)-5-(5-fluoropyridin-2-yl)-2-methyl-1,2,6-thiadiazinane-3-carboxamide 1,1-dioxide]", "EC50": "> 5000"}, {"smiles": "CN1C(C(=O)Nc2ccc(F)c(C#N)c2)CC(c2cccs2)NS1(=O)=O", "note": "(racemic) [HBV-CSU-045, Cis-N-(3-cyano-4-fluorophenyl)-2-methyl-5-(thiophen-2-yl)-1,2,6-thiadiazinane-3-carboxamide 1,1-dioxide]", "EC50": "< 1000"}, {"smiles": "Cc1c(-c2csc([C@@H]3C[C@H](C(=O)Nc4ccc(F)c(Cl)c4)N(C)S(=O)(=O)N3)c2)cnn1C", "note": "(relative stereo) [HBV-CSU-315-ISO-II, Cis-N-(3-chloro-4-fluorophenyl)-5-(4-(1,5-dimethyl-1H-pyrazol-4-yl)thiophen-2-yl)-2-methyl-1,2,6-thiadiazinane-3-carboxamide 1,1-dioxide]", "EC50": "< 1000"}, {"smiles": "CN1C(C(=O)Nc2ccc(Cl)c(F)c2)CC(c2cccs2)NS1(=O)=O", "note": "(stereo not drawn) [HBV-CSU-018, Cis-N-(4-Chloro-3-fluorophenyl)-2-methyl-5-(thiophen-2-yl)-1,2,6-thiadiazinane-3-carboxamide 1,1-dioxide]", "EC50": "1000 to 5000"}, {"smiles": "COCCN1[C@@H](C(=O)Nc2ccc(F)c(Cl)c2)C[C@@H](c2ccc(F)cc2)NS1(=O)=O", "note": "[HBV-CSU-210-ISO-I, Cis-N-(3-Chloro-4-fluorophenyl)-5-(4-fluorophenyl)-2-(2-methoxyethyl)-1,2,6-thiadiazinane-3-carboxamide 1,1-dioxide]", "EC50": "> 5000"}, {"smiles": "CN1C(C(=O)Nc2cccc(C(F)(F)F)c2)CC(c2cccs2)NS1(=O)=O", "note": "(stereo not drawn) [HBV-CSU-012, Cis-2-Methyl-5-(thiophen-2-yl)-N-(3-(trifluoromethyl)phenyl)-1,2,6-thiadiazinane-3-carboxamide 1,1-dioxide]", "EC50": "1000 to 5000"}, {"smiles": "CN1[C@H](C(=O)Nc2ccc(F)c(Cl)c2)C[C@H](c2cc(-c3ccccc3)cs2)NS1(=O)=O", "note": "[HBV-CSU-148-ISO-I, Cis-N-(3-chloro-4-fluorophenyl)-2-methyl-5-(4-phenylthiophen-2-yl)-1,2,6-thiadiazinane-3-carboxamide 1,1-dioxide]", "EC50": "< 1000"}, {"smiles": "CN1[C@H](C(=O)Nc2ccc(F)c(Cl)c2)C[C@H](c2cc(-c3cnn(C)c3)c(Cl)s2)NS1(=O)=O", "note": "[HBV-CSU-306-ISO-I, Cis-5-(5-chloro-4-(1-methyl-1-pyrazol-4-yl)thiophen-2-yl)-N-(3-chloro-4-fluorophenyl)-2-methyl-1,2,6-thiadiazinane-3-carboxamide 1,1-dioxide]", "EC50": "< 1000"}, {"smiles": "CN1C(C(=O)Nc2ccc(F)c(Cl)c2)CC(c2cccc(O)c2)NS1(=O)=O", "note": "(stereo not drawn) [HBV-CSU-205, Cis-N-(3-chloro-4-fluorophenyl)-5-(3-hydroxyphenyl)-2-methyl-1,2,6-thiadiazinane-3-carboxamide 1,1-dioxide]", "EC50": "< 1000"}, {"smiles": "Cc1csc([C@H]2C[C@@H](C(=O)Nc3ccc(F)c(Cl)c3)N(C)S(=O)(=O)N2)c1", "note": "[HBV-CSU-147-ISO-I, Cis-N-(3-chloro-4-fluorophenyl)-2-methyl-5-(4-methylthiophen-2-yl)-1,2,6-thiadiazinane-3-carboxamide 1,1-dioxide]", "EC50": "< 1000"}, {"smiles": "COCCN1[C@H](C(=O)Nc2ccc(F)c(Cl)c2)C[C@H](c2ccc(F)cc2)NS1(=O)=O", "note": "[HBV-CSU-210-ISO-II, Cis-N-(3-Chloro-4-fluorophenyl)-5-(4-fluorophenyl)-2-(2-methoxyethyl)-1,2,6-thiadiazinane-3-carboxamide 1,1-dioxide]", "EC50": "< 1000"}, {"smiles": "Cc1nn(C)c(C)c1-c1csc([C@@H]2C[C@H](C(=O)Nc3ccc(F)c(Cl)c3)N(C)S(=O)(=O)N2)c1", "note": "(relative stereo) [HBV-CSU-317-ISO-II, Cis-N-(3-chloro-4-fluorophenyl)-2-methyl-5-(4-(1,3,5-trimethyl-1H-pyrazol-4-yl)thiophen-2-yl)-1,2,6-thiadiazinane-3-carboxamide 1,1-dioxide]", "EC50": "< 1000"}, {"smiles": "[2H]C([2H])([2H])N1C(C(=O)Nc2ccc(F)c(Cl)c2)CC(c2ccc(-c3cn(C)cn3)s2)NS1(=O)=O", "note": "(stereo not drawn) [HBV-CSU-373]", "EC50": "< 1000"}, {"smiles": "CN1C(C(=O)Nc2ccc(F)c(Cl)c2)CC(c2cccc(C(F)(F)F)c2)NS1(=O)=O", "note": "(stereo not drawn) [HBV-CSU-259, Cis-N-(3-chloro-4-fluorophenyl)-2-methyl-5-(3-(trifluoromethyl)phenyl)-1,2,6-thiadiazinane-3-carboxamide 1,1-dioxide]", "EC50": "< 1000"}, {"smiles": "CN1[C@@H](C(=O)Nc2ccc(F)c(Cl)c2)C[C@@H](c2cc(-c3ccccn3)cs2)NS1(=O)=O", "note": "[HBV-CSU-168-ISO-I, Cis-N-(3-chloro-4-fluorophenyl)-2-methyl-5-(4-(pyridin-2-yl)thiophen-2-yl)-1,2,6-thiadiazinane-3-carboxamide 1,1-dioxide]", "EC50": "1000 to 5000"}, {"smiles": "[2H]C([2H])([2H])N1[C@@H](C(=O)Nc2ccc(F)c(Cl)c2)CC(c2ccc(-c3cn(C)cn3)s2)NS1(=O)=O", "note": "(stereo in doubt) [HBV-CSU-373-ISO-II, Cis-N-(3-Chloro-4-fluorophenyl)-2-(methyl-d3)-5-(5-(1-methyl-1H-imidazol-4-yl)thiophen-2-yl)-1,2,6-thiadiazinane-3-carboxamide 1,1-dioxide]", "EC50": "< 1000"}, {"smiles": "CN1[C@@H](C(=O)Nc2ccc(F)c(Cl)c2)C[C@@H](c2ccc(-c3cnco3)s2)NS1(=O)=O", "note": "[HBV-CSU-269-ISO-II, Cis-N-(3-Chloro-4-fluorophenyl)-2-methyl-5-(5-(oxazol-5-yl)thiophen-2-yl)-1,2,6-thiadiazinane-3-carboxamide 1,1-dioxide]", "EC50": "1000 to 5000"}, {"smiles": "O=C(Nc1ccc(F)c(Cl)c1)[C@@H]1C[C@H](c2nccs2)NS(=O)(=O)N1CCOC(F)(F)F", "note": "[HBV-CSU-072-ISO-II, Cis-N-(3-Chloro-4-fluorophenyl)-5-(thiazol-2-yl)-2-(2-(trifluoromethoxy)ethyl)-1,2,6-thiadiazinane-3-carboxamide 1,1-dioxide]", "EC50": "< 1000"}, {"smiles": "CN1[C@H](C(=O)Nc2ccc(F)c(Br)c2)C[C@H](c2ncc(Br)s2)NS1(=O)=O", "note": "[HBV-CSU-383, (3S,5R)—N-(3-bromo-4-fluorophenyl)-5-(5-bromothiazol-2-yl)-2-methyl-1,2,6-thiadiazinane-3-carboxamide 1,1-dioxide]", "EC50": "< 1000"}, {"smiles": "CN1C(C(=O)Nc2ccc(F)c(Cl)c2)CC(c2ccns2)NS1(=O)=O", "note": "(stereo not drawn) [HBV-CSU-057, Cis-N-(3-chloro-4-fluorophenyl)-5-(isothiazol-5-yl)-2-methyl-1,2,6-thiadiazinane-3-carboxamide 1,1-dioxide]", "EC50": "< 1000"}, {"smiles": "CN1[C@H](C(=O)Nc2ccc(F)c(Cl)c2)C[C@H](c2ncc(-c3c[nH]cn3)s2)NS1(=O)=O", "note": "[HBV-CSU-333-ISO-I, 5-(5-(1H-imidazol-4-yl)thiazol-2-yl)-N-(3-chloro-4-fluorophenyl)-2-methyl-1,2,6-thiadiazinane-3-carboxamide 1,1-dioxide]", "EC50": "< 1000"}, {"smiles": "CN1C(C(=O)Nc2ccc(F)c(Cl)c2)CC(c2ccc(-c3ccc(C(F)(F)F)nc3)s2)NS1(=O)=O", "note": "(racemic) [HBV-CSU-158, Cis-N-(3-chloro-4-fluorophenyl)-2-methyl-5-(5-(6-(trifluoromethyl)pyridin-3-yl)thiophen-2-yl)-1,2,6-thiadiazinane-3-carboxamide 1,1-dioxide]", "EC50": "1000 to 5000"}, {"smiles": "CN1[C@H](C(=O)Nc2ccc(F)c(Cl)c2)C[C@H](c2cc(-c3cncnc3)cs2)NS1(=O)=O", "note": "[HBV-CSU-290-ISO-I, Cis-N-(3-chloro-4-fluorophenyl)-2-methyl-5-(4-(pyrimidin-5-yl)thiophen-2-yl)-1,2,6-thiadiazinane-3-carboxamide 1,1-dioxide]", "EC50": "< 1000"}, {"smiles": "CN1[C@H](C(=O)Nc2ccc(F)c(Cl)c2)C[C@@H](c2ccc(-c3cn(C)cn3)s2)NS1(=O)=O", "note": "[HBV-CSU-266-Trans-ISO-II, (3S,5S)-N-(3-chloro-4-fluorophenyl)-2-methyl-5-(5-(1-methyl-1H-imidazol-4-yl)thiophen-2-yl)-1,2,6-thiadiazinane-3-carboxamide 1,1-dioxide]", "EC50": "1000 to 5000"}, {"smiles": "Cc1ccc(C2CC(C(=O)Nc3ccc(F)c(Cl)c3)N(C)S(=O)(=O)N2)s1", "note": "(racemic) [HBV-CSU-115, Cis-N-(3-chloro-4-fluorophenyl)-2-methyl-5-(5-methylthiophen-2-yl)-1,2,6-thiadiazinane-3-carboxamide 1,1-dioxide]", "EC50": "< 1000"}]}]}
